Source: ChEMBL document CHEMBL5214965, “Synthesis and antidepressant activity of novel 1-(1-benzoylpiperidin-4-yl) methanamine derivatives selectively targeting SSRI/5-HT1A” (Bioorg Med Chem Lett, 2022)
Activity calls are given as the source filed them. The calls are words filed in the database; no cut-off is given here.

Legend:
in vitro [1] = details: human, liver microsomes
Description: Metabolic stability in human liver microsomes assessed as clearance

[2] = molecular target: T1, 5-hydroxytryptamine receptor 1A (Homo sapiens) (UniProt P08908); experiment: Displacement of [3H][…] from 5-HT1A receptor in human HEK293 cells at 1 uM measured after 60 mins by scintillation counting method relative to control; assay type: cell-based
T1 sequence (whole entry): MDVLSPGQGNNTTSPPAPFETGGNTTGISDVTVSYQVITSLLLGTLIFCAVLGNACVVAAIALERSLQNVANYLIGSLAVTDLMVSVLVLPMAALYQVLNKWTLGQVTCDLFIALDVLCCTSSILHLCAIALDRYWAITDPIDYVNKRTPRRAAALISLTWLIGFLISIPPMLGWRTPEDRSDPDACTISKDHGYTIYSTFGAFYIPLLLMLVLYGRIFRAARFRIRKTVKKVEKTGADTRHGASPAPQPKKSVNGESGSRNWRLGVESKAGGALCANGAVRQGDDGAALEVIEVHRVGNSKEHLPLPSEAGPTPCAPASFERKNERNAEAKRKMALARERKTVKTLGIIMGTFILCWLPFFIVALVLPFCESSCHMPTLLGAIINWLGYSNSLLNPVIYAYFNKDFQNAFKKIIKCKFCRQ

in vitro [3] = details: human, liver microsomes; remark: listed apart in the source
[4] = molecular target: Sodium-dependent serotonin transporter (Rattus norvegicus) (UniProt P31652); experiment: Inhibition of serotonin transporter in rat brain tissue assessed as inhibition of [3H]-5-hydroxytryptamine reuptake at 1 uM relative to control; assay type: tissue-based
Chain of Sodium-dependent serotonin transporter (Rattus norvegicus) (P31652 whole entry): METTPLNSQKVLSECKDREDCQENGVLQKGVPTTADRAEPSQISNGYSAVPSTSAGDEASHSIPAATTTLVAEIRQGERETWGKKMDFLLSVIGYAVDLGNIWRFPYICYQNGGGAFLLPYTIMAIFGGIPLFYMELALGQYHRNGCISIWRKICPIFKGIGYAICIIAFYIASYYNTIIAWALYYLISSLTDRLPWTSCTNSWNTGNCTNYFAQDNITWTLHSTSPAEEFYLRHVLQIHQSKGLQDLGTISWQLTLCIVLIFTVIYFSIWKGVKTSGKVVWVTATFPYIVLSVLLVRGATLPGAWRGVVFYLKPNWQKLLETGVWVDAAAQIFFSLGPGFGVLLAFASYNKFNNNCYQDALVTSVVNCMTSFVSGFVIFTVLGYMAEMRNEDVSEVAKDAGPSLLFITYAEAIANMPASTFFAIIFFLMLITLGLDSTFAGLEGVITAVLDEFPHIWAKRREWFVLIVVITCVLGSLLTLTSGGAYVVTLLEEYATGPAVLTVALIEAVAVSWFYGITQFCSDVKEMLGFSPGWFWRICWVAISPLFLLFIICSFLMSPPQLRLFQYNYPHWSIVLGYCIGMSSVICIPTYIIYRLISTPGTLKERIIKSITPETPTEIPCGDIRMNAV

in vitro [5] = details: mouse, liver microsomes
Description: Metabolic stability in mouse liver microsomes assessed as clearance

in vitro [6] = details: mouse, liver microsomes; remark: listed apart in the source
Description: Metabolic stability in mouse liver microsomes assessed as half life

[7] = molecular target: 5-hydroxytryptamine receptor 1D (Homo sapiens) (UniProt P28221); experiment: Inhibition of 5-HT1D receptor (unknown origin); details: concentration not given here
Chain of 5-hydroxytryptamine receptor 1D (Homo sapiens) (P28221 whole entry): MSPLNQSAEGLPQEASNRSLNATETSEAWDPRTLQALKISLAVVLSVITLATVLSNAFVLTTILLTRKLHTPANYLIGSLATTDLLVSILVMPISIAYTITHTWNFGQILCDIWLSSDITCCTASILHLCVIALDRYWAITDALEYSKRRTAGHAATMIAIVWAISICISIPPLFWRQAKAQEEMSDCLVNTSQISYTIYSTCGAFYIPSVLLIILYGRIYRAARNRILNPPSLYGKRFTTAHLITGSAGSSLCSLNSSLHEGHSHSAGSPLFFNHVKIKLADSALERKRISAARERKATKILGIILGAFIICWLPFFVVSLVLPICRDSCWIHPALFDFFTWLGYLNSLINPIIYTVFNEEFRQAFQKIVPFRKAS

Mus musculus [8] = experiment: Antidepressant activity in ICR mouse assessed as reduction in immobility time at 0.6 mg/kg, po for 7 days by tail suspension test; assay type: functional; design: scale not given: the % may be the effect or the level left; details: time 7 day
[9] = Binding affinity to 5-HT7 receptor (unknown origin) assessed as inhibition constant; design: species or system Homo sapiens
[10] = molecular target: T2, 5-hydroxytryptamine receptor 1A (Homo sapiens, UniProt P08908); experiment: Displacement of [3H][…] from 5-HT1A receptor in human HEK293 cells measured after 60 mins by scintillation counting method; assay type: cell-based
T2 sequence (P08908 whole entry): T1 sequence (whole entry)

[11] = molecular target: 5-hydroxytryptamine receptor 2A (Homo sapiens) (UniProt P28223); experiment: Inhibition of 5-HT2A receptor (unknown origin); details: concentration not given here
Chain of 5-hydroxytryptamine receptor 2A (Homo sapiens) (P28223 whole entry): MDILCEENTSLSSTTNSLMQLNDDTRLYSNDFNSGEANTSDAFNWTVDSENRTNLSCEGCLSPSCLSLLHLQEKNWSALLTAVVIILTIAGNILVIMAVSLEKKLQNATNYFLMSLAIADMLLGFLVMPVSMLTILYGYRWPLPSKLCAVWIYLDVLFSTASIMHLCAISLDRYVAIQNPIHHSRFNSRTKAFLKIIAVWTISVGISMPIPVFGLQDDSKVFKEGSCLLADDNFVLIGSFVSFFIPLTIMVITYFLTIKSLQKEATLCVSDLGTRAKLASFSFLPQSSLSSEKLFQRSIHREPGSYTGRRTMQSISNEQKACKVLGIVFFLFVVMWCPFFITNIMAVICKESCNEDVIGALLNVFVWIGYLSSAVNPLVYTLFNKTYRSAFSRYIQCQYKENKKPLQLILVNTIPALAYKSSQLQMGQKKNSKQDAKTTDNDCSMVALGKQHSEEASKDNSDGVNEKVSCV

Homo sapiens [12] = species on record: Homo sapiens; experiment: Inhibition of 5-HT7 receptor (unknown origin); details: concentration not given here
Mus musculus [13] = experiment: Antidepressant activity in ICR mouse assessed as reduction in immobility time at 0.6 to 80 mg/kg, po for 7 days by forced swimming test; assay type: functional, organism-based; details: dose 0.6-80 mg/kg, time 7.0 day
[14] = molecular target: T3, 5-hydroxytryptamine receptor 2C (Homo sapiens) (UniProt P28335); experiment: Inhibition of 5-HT2C receptor (unknown origin); details: concentration not given here
T3 sequence (whole entry): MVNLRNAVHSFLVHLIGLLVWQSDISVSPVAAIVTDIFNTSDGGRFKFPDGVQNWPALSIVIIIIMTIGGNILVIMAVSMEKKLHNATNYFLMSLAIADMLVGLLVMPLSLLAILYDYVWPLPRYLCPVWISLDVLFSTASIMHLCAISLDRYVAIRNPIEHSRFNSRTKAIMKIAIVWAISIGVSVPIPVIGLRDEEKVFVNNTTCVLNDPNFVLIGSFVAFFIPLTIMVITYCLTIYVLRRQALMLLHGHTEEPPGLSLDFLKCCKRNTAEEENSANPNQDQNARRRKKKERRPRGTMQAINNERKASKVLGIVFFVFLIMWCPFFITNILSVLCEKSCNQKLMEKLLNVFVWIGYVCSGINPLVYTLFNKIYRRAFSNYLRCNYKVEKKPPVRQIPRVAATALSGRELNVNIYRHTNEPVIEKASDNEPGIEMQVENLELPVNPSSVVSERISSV

Mus musculus [15] = experiment: Antidepressant activity in ICR mouse assessed as reduction in immobility time at 0.6 mg/kg, po for 7 days by forced swimming test; assay type: functional; design: scale not given: the % may be the effect or the level left; details: time 7 day
Mus musculus [16] = experiment: Antidepressant activity in ICR mouse assessed as reduction in immobility time at 10 mg/kg, po for 7 days by tail suspension test; assay type: functional; design: scale not given: the % may be the effect or the level left; details: time 7 day
[17] = molecular target: Serotonin 3 (5-HT3) receptor (Homo sapiens) (UniProt P46098+A5X5Y0+O95264+Q70Z44+Q8WXA8); experiment: Inhibition of 5-HT3 receptor (unknown origin); assay type: protein-complex assay; details: concentration not given here
[18] = molecular target: Sodium-dependent serotonin transporter (Rattus norvegicus, UniProt P31652); experiment: Inhibition of serotonin transporter in rat brain tissue assessed as inhibition of [3H]-5-hydroxytryptamine reuptake; assay type: tissue-based
Chain of Sodium-dependent serotonin transporter (P31652 whole entry): as the sequence (P31652 whole entry) above

Homo sapiens [19] = species on record: Homo sapiens; experiment: Inhibition of 5-HT6 receptor (unknown origin); details: concentration not given here
[20] = Binding affinity to 5-HT6 receptor (unknown origin) assessed as inhibition constant; design: species or system Homo sapiens
[21] = molecular target: 5-hydroxytryptamine receptor 1B (Homo sapiens) (UniProt P28222); experiment: Inhibition of 5-HT1B receptor (unknown origin); details: concentration not given here
Chain of 5-hydroxytryptamine receptor 1B (Homo sapiens) (P28222 whole entry): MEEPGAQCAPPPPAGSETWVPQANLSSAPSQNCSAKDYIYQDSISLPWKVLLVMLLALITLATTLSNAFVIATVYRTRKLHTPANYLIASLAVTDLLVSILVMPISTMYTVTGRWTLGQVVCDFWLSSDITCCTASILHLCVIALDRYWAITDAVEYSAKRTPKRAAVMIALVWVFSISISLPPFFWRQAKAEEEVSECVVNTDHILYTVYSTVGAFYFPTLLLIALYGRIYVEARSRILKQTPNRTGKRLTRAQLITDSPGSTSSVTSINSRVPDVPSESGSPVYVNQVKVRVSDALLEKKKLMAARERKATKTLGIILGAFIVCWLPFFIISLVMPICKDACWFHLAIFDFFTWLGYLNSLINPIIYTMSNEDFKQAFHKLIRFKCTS

Row | Structure (SMILES) | microsomal CLint (in vitro [1]) [µL/min/mg] | inhibition [2] [%] | half-life (in vitro [3]) [min] | inhibition [4] [%] | microsomal CLint (in vitro [5]) [µL/min/mg] | half-life (in vitro [6]) [min] | also measured
1 | Cc1cc(C(=O)N2CCC(CNCCCc3c[nH]c4ccc(F)cc34)CC2)ccc1F | 559 | 100 | 3.86 | 103 | – | – | –
2 | NC(=O)c1ccccc1C(=O)N1CCC(CNCCCc2c[nH]c3ccc(F)cc23)CC1 | 138 | 98 | 10 | 102 | 105 | 13.2 | –
3 | O=C(c1ccc(F)cc1)N1CCC(CNCCCc2c[nH]c3ccc(F)cc23)CC1 | 84.3 | 100 | 16.4 | 101 | – | – | –
4 | N#Cc1ccc2[nH]cc(CCCCN3CCN(c4ccc5oc(C(N)=O)cc5c4)CC3)c2c1 [VILAZODONE] | 51.6 | – | 26.9 | – | 60.6 | 23.1 | –
5 | CCCN(CCCc1c[nH]c2ccc(F)cc12)CC1CCN(C(=O)c2ccc(F)c(Cl)c2)CC1 | – | 86 | – | 101 | – | – | –
6 | N#Cc1ccc2[nH]cc(CCCNCC3CCN(C(=O)c4ccc(F)c(Cl)c4)CC3)c2c1 | 113 | 100 | 12.2 | 103 | – | – | –
7 | O=C(c1ccc(F)c(Cl)c1)N1CCC(NCCCc2c[nH]c3ccc(F)cc23)CC1 | – | 96 | – | 102 | – | – | –
8 | O=C(c1ccc(F)c(F)c1)N1CCC(CNCCCc2c[nH]c3ccc(F)cc23)CC1 | 71.2 | 99 | 19.5 | 103 | – | – | –
9 | O=C(c1ccc(F)c(Cl)c1)N1CCC(CNCCCc2c[nH]c3ccc(F)cc23)CC1 | 51.8 | 99 | 26.8 | 101 | 22.5 | 61.6 | inhibition [7]: < 75%; Activity (Mus musculus [8]): 19%; Ki [9]: 36 nM; Ki ([10]; read-out: Ki): 0.069 nM; inhibition [11]: < 75%; inhibition (Homo sapiens [12]): 86.5%; Activity (Mus musculus [13]): Active; inhibition [14]: < 75%; Activity (Mus musculus [15]): 34%; Activity (Mus musculus [16]): 24%; inhibition [17]: < 75%; IC50 [18]: 8.2 nM; inhibition (Homo sapiens [19]): 82%; Ki [20]: 150 nM; inhibition [21]: < 75%
10 | O=C(c1ccc(F)c(Cl)c1)N1CCC(CNCCCCCc2c[nH]c3ccc(F)cc23)CC1 | – | 92 | – | 101 | – | – | –
11 | Cc1ccc(C(=O)N2CCC(CNCCCc3c[nH]c4ccc(F)cc34)CC2)cc1 | 310 | 99 | 4.48 | 99 | – | – | –
12 | Fc1ccc(OCCN2CCC(c3c[nH]c4ccc(F)cc34)CC2)c(-c2ccccc2)c1 | – | – | – | – | – | – | Ki ([10]; read-out: Ki): 0.2 nM; IC50 [18]: 0.5 nM
13 | NC(=O)c1ccc(C(=O)N2CCC(CNCCCc3c[nH]c4ccc(F)cc34)CC2)cc1 | 4.2 | 98 | 330 | 100 | 13.6 | 102 | –
14 | O=C(c1ccc(F)c(Cl)c1)N1CCC(CNCc2cccc(-n3cccn3)n2)CC1 | – | – | – | – | – | – | Ki [10]: 1.54 nM
15 | Fc1ccc(N2CCN(CCCc3c[nH]c4ccc(F)cc34)CC2)c(-c2ccccc2)c1 | – | – | – | – | – | – | Ki ([10]; read-out: Ki): 12 nM; IC50 [18]: 177 nM
16 | NC(=O)c1cccc(C(=O)N2CCC(CNCCCc3c[nH]c4ccc(F)cc34)CC2)c1 | 9 | 98 | 154 | 102 | 5 | 277 | –
17 | O=C(c1ccc(Cl)c(Cl)c1)N1CCC(CNCCCc2c[nH]c3ccc(F)cc23)CC1 | 45.4 | 100 | 30.5 | 101 | 44.9 | 30.8 | Ki ([10]; read-out: Ki): 0.097 nM; IC50 [18]: 17 nM
18 | O=C(c1ccc(F)c(Cl)c1)N1CCC(CNCCCCc2c[nH]c3ccc(F)cc23)CC1 | 118 | 99 | 11.7 | 103 | 30.8 | 45 | –
19 | O=C(c1ccc(F)c(Cl)c1)N1CCC(CNCCc2c[nH]c3ccc(F)cc23)CC1 | – | 93 | – | 101 | – | – | –
20 | CN(CCCc1c[nH]c2ccc(F)cc12)CC1CCN(C(=O)c2ccc(F)c(Cl)c2)CC1 | – | 94 | – | 102 | – | – | –
21 | O=C(c1ccc(Cl)cc1)N1CCC(CNCCCc2c[nH]c3ccc(F)cc23)CC1 | 70.9 | 100 | 19.5 | 103 | – | – | –
22 | O=C(c1cccc(Cl)c1)N1CCC(CNCCCc2c[nH]c3ccc(F)cc23)CC1 | 153 | 101 | 9.07 | 103 | 49.8 | 27.8 | –
